Source: patent US6413937B1, “Combinations for use in increasing the potency of a substrate for multidrug resistance related protein” (Dublin City University and Enterprise Ireland, priority 1996, dated 2002)

What was measured:
DLKP cell line = test: miniaturised in vitro colorimetric cell survival assay (acid phosphatase end-point), DLKP; type: cell-based, human
Description: (§1) All the results presented in this Example for the DLKP, A549 and OAW42-SR cell lines were derived using the same miniaturised in vitro calorimetric assay system. On Day 1 of the assay 1000 cells/well/100 μl were plated into 96-well plates. Cells were allowed to attach overnight and cell viability was visually assessed. […] NSAID plus chemotherapeutic drug) to be analysed were added onto the cells. The individual drugs were added separately in 50 μl quantities (4× stocks, to take into account the dilution effect of having 200 μl final volume in each well). The drugs were left on the cells for five further days (Day 7) and cell number was determined using the acid phosphatase end-point assay which uses p-nitrophenol phosphate as substrate (Martin, A. and Clynes, M. (1991) In Vitro Dev. Biol., 27A, 183-184). On Day 7 the culture medium was removed from the cells and they were washed once with phosphate buffered saline (PBS). […] After the incubation period 50 μl of 1N NaOH was added to each well to develop the colour. The plates were then read at 405 nm (reference 620 nm) on an ELISA plate-reader. […] All results are the cell survival means ±S.D. from a minimum of three experiments.

MRP-specific substrates = test: screen for enhancement of toxicity of MRP substrates by NSAIDs; type: cell-based; details: summary statements
A549 cell line = test: miniaturised in vitro colorimetric cell survival assay (acid phosphatase end-point), A549; type: cell-based, human
Description: as §1

[1] = system: GST prepared from DLKP cells; test: total GST assay with 1-chloro-2,4-dinitrobenzene; type: biochemical, human
Description: The other NSAIDs were tested in a total GST assay (Habig, W. H., and Jakoby, W. B., (1981); Methods Enzymol., 77: 218-231). Total cellular GST activity was assayed, using 1-chloro-2,4-dinitrobenzene as a substrate, according to the method of Habig, W. H., and Jakoby, W. B., (1981); supra. Due to spectrophotometric interference at 340 nm, caused by the majority of the NSAIDs, the assays were all performed at 360 nm, without any apparent effect on the rate of the control reaction The results are shown in Table 5.

DLKP cells = test: Example 5 miniaturised in vitro cell toxicity assay, DLKP; type: cell-based, human
Description: For the monolayer cell lines miniaturised in vitro assays were used to determine drug toxicity. On Day I cells were seeded at 1×10^3 cells/well in a 96-well plate and left to attach overnight. Drug was added on Day 2, and the assay was terminated on Day 7. Cell number was then evaluated by using one of two colorimetric end-point […]: the acid phosphatase assay (Martin, A., and Clynes, M. (1991); In vitro Cell and Development Biology, 27A: 183-184) or the crystal violet dye elution assay (Martin, A., and Clynes, M. (1993); Cytotechnology, 11:49-58). All assays were performed in triplicate.

MRP pump = target: T1, MRP pump (Homo sapiens, UniProt P33527); test: ATP-dependent transport of [3H]LTC4 into inside-out plasma membrane vesicles from HL60ADR cells; type: biochemical; details: for MRP-pump inhibitory activity: conclusion from Table 4
T1 construct: inside-out plasma membrane vesicles prepared from HL60ADR cells; endogenous in cells; host or cells: HL60ADR cells (plasma membrane vesicles)
T1 sequence (P33527 whole entry): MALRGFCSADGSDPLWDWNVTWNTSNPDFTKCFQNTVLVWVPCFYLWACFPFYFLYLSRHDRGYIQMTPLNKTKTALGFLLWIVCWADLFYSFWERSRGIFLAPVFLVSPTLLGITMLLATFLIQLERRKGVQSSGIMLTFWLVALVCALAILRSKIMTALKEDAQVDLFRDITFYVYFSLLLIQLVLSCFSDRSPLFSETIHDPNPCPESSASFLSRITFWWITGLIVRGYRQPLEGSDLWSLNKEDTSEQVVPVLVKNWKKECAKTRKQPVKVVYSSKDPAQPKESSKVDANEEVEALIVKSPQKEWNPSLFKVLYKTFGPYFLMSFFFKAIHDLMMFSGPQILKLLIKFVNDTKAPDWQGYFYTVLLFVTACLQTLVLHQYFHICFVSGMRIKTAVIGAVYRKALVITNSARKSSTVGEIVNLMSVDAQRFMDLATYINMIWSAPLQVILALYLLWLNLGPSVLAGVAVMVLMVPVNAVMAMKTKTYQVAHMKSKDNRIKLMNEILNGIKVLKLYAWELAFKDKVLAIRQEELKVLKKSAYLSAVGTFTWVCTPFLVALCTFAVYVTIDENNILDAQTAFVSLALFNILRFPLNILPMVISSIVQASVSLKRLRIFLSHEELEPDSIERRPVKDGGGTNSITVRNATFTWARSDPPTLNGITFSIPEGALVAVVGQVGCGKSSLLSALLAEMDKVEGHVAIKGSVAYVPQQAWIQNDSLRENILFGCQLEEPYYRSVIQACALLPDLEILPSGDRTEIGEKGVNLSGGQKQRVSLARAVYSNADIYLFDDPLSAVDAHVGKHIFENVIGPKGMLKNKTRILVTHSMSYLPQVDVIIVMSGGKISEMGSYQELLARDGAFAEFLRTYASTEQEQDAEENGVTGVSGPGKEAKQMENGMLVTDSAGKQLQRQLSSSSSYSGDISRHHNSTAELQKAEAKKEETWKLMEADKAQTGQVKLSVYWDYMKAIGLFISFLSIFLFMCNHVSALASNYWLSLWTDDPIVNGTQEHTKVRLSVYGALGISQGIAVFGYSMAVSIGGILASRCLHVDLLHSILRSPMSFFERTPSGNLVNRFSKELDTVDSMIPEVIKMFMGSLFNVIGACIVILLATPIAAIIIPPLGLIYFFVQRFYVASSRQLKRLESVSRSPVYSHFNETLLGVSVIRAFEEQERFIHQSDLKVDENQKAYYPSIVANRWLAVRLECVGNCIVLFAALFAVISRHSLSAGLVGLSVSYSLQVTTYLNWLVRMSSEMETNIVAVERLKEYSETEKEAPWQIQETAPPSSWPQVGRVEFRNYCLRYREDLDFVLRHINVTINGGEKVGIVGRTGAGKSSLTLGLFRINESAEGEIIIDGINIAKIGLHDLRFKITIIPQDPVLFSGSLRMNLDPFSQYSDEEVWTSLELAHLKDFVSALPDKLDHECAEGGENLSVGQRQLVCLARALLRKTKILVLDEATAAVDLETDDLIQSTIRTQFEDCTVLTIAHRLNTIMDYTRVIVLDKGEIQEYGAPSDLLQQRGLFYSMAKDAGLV
Description: To determine if the NSAIDs were acting directly on the MRP pump the uptake of [^3H]LTC4 into inside-out plasma membrane vesicles prepared from HL60ADR cells was examined using a rapid filtration procedure (Ishikawa,T., et al. (1994); J. Biol. Chem. 269 (46); 29085-29093). ATP-dependent transport of [^3H]LTC4 into the membrane vesicles was measured by a rapid filtration method using a Millipore sampling manifold. The membrane vesicles were thawed at 37° C. before use and kept on ice. The reaction components consisted of 0.25 M sucrose/10 mM Tris.HCl pH 7.4/1 mM ATP/10 mM MgCl2/10 mM creatine phosphate/ 110 μg/ml creatine kinase and 10 nM [^3H]LTC4, with 50 μg of the inside-out vesicle preparation, in a final volume of 110 μl. This suspension was incubated at 37° C., with gentle mixing, and aliquots, 20 μl, were taken at the indicated points. Those aliquots were diluted in 1 ml of ice-cold incubation buffer before being applied to 0.22 μm Millipore GSWP nitrocellulose filters, pre-soaked in ice-cold incubation buffer, under suction. The filters were subsequently washed with 3 ml ice-cold incubation buffer, and absorbed radioactivity was measured using a scintillation counter (Beckman). In control experiments ATP was replaced with 5μ-AMP to determine the ATP-dependent transport.

DLKP-7 cells = test: adriamycin efflux from loaded cells, HPLC; type: cell-based
Description: DLKP-7 cells were seeded into 75 cm^2 flasks at 0.5×10^6 cells/10 ml ATCC medium. The cells were left for 2 days, the ATCC medium was removed and fresh medium containing adriamycin (0.5 μg/ml) was added. Following a 2 hour incubation this medium was removed, the flasks were washed twice with PBS, 10 ml ATCC medium or ATCC medium containing the test NSAID was added, and the cells were incubated for a further 4 hr. The cells were trypsinised and the pellet was frozen at −20° C. Duplicate flasks for each time point were prepared. The NSAIDs used were indomethacin 10 μg/ml and piroxicam 20 μg/ml.
The amount of adriamycin in the cells was quantified using liquid-liquid extraction and reverse-phase HPLC analysis. The frozen cell pellets were thawed and resuspended in […] of water/100 μl of 33% silver nitrate and mixed for 5 min. 300 μl of methanol, containing 1.5 μg of daunorubicin as an internal standard (IS), and 1.3 ml of acetonitrile were then added and the tubes mixed for a further 5 min. The mixture was transferred to glass tubes and kept at 4° C. for 1 hr. The tubes were then centrifuged at 1000 g for 15 min. to pellet any solid material. 1.1 ml of the supernatant was removed to HPLC autosampler vials (Labquip, Dublin, Ireland). The solvent was evaporated off at room temperature under a stream of nitrogen gas.
The extract was resuspended in 50 μl of mobile phase 1 (MP1): 32 ml of 0.1 M phosphoric acid mixed with 244 ml of ultrapure water, pH: 2.3 (adjusted upwards with a few drops of 1N potassium hydroxide) to which 124 ml of acetonitrile was added and the final mixture was degassed in a sonicating bath for 5 min. The second mobile phase (MP2) consisted of acetonitrile. The resuspended sample (20 μl) was automatically injected into the HPLC system. The HPLC system comprised a Beckman System Gold 507 autosampler, 125 pump and 166 detector. The MP was pumped through a C18 reversed-phase Prodigy 5 μm particle size ODS-3 column (Phenomenex, Macclesfield, England) (dimensions 150×4.6mm) and absorbance was measured at 253 nm. For the first 14 min. of the chromatographic run MP 1 was pumped at 0.5 ml/min. From 14 min. to 20 min. the column was switched to MP 2. At 20 min. the column was switched back to MP 1 and the flow rate increased to 1 ml/min. At 30 min. the flow rate was brought back to 0.5 ml/min. The run continued for a further 5 min. giving a total run time of 35 min. The amount of adriamycin present was quantified by measuring its peak area and the peak area of the IS. The peak area of the adriamycin was divided by the area of the IS peak and the ratio plotted against a concentration series for spiked adriamycin samples.

Structure (SMILES): O=c1[nH]cc(F)c(=O)[nH]1 [5-FU, 5-flurouracil]
- % cell survival (DLKP cell line; iv) 5-FU 0.5 μg/ml alone): 66.18 ± 1.4%

Structure (SMILES): COc1ccc2c(c1)c(CC(=O)OCC(=O)O)c(C)n2C(=O)c1ccc(Cl)cc1 [Acemetacin, acemetacin]
- enhancement of toxicity of MRP substrates (MRP-specific substrates): have been found to enhance the toxicity of MRP-specific substrates
- % cell survival (A549 cell line; viii) Acemetacin 11.50 μg/ml, alone or + Adriamycin 15 ng/ml): 102.08 ± 8.76%
- % cell survival (A549 cell line; viii) Acemetacin 19.20 μg/ml, alone or + Adriamycin 15 ng/ml): 97.30 ± 8.46%
- % cell survival (A549 cell line; viii) Acemetacin 37.50 μg/ml, alone or + Adriamycin 15 ng/ml): 85.04 ± 10.13%
- % Inhibition of GST ([1]; 0.25 mM): 58%

Structure (SMILES): O=C(O)Cc1ccccc1Nc1c(Cl)cccc1Cl [Diclofenac]
- % Inhibition of GST ([1]; 0.75 mM): 54%

Structure (SMILES): COc1cccc2c1C(=O)c1c(O)c3c(c(O)c1C2=O)C[C@@](O)(C(=O)CO)C[C@@H]3O[C@H]1C[C@H](N)[C@@H](O)[C@H](C)O1 [Epirubicin, epirubicin]
- % cell survival (DLKP cells; Epirubicin 1 ng/ml alone): 69.08 ± 3.6%

Structure (SMILES): O=C(O)CCC(=O)c1ccc(-c2ccccc2)cc1 [Fenbufen]
- % Inhibition of GST ([1]; 1 mM): 15.6%

Structure (SMILES): CC(C(=O)O)c1cccc(Oc2ccccc2)c1 (centres unmarked) [Fenoprofen]
- % Inhibition of GST ([1]; 1 mM): 22.5%

Structure (SMILES): O=C(O)c1ccccc1Nc1cccc(C(F)(F)F)c1 [Flufenamic Acid]
- % Inhibition of GST ([1]; 0.75 mM): 41.2%

Structure (SMILES): CC(C)Cc1ccc(C(C)C(=O)O)cc1 (centres unmarked) [Ibuprofen]
- % cell survival (A549 cell line; xvi) Ibuprofen 3.06 μg/ml, alone or + Adriamycin 17 ng/ml): 100.37 ± 7.94%
- % cell survival (A549 cell line; xvi) Ibuprofen 7.92 μg/ml, alone or + Adriamycin 17 ng/ml): 96.78 ± 11.43%
- % cell survival (A549 cell line; xvi) Ibuprofen 15.72 μg/ml, alone or + Adriamycin 17 ng/ml): 95.58 ± 8.50%
- % Inhibition of GST ([1]; 1 mM): 18.5%

Structure (SMILES): CC(C(=O)O)c1cccc(C(=O)c2ccccc2)c1 (centres unmarked) [Ketoprofen]
- % Inhibition of GST ([1]; 1 mM): 11.2%

Structure (SMILES): c1ccc([C@H]2CN3CCSC3=N2)cc1 [Levamisole]
- % Inhibition of GST ([1]; 1 mM): 0%

Structure (SMILES): Cc1cccc(Nc2ccccc2C(=O)O)c1C [Mefenamic acid, mefenamic acid]
- % cell survival (A549 cell line; x) Mefenamic acid 2.30 μg/ml, alone or + Adriamycin 15 ng/ml): 98.49 ± 7.66%
- % cell survival (A549 cell line; x) Mefenamic acid 4.00 μg/ml, alone or + Adriamycin 15 ng/ml): 95.38 ± 9.21%
- % cell survival (A549 cell line; x) Mefenamic acid 7.90 μg/ml, alone or + Adriamycin 15 ng/ml): 85.23 ± 7.80%

Structure (SMILES): COc1ccc2cc([C@H](C)C(=O)O)ccc2c1 [Naproxen]
- MRP-pump inhibitory activity (MRP pump): do not
- % Inhibition of GST ([1]; 1 mM): 17%

Structure (SMILES): CN1C(C(=O)Nc2ccccn2)=C(O)c2ccccc2S1(=O)=O [Piroxicam]
- enhancement of toxicity of MRP substrates (MRP-specific substrates): negative
- inhibition at 302 µM (MRP pump; 0.302 mM): 0%
- MRP-pump inhibitory activity (MRP pump): do not
- % Adriamycin content at 0 h (DLKP-7 cells; cells loaded with adriamycin 0.5 μg/ml 2 h, indomethacin 10 μg/ml, piroxicam 20 μg/ml, 0 h): 100%
- % Adriamycin content at 4 h (DLKP-7 cells; cells loaded with adriamycin 0.5 μg/ml 2 h, indomethacin 10 μg/ml, piroxicam 20 μg/ml, 4 h): 67 ± 10%
- level of adriamycin within the treated cells (DLKP-7 cells; during the 4 hours of the experiment): gradually decreased

Structure (SMILES): O.O.O.O=C([O-])[C@H]([O-])[C@@H]([O-])C(=O)[O-].O=C([O-])[C@H]([O-])[C@@H]([O-])C(=O)[O-].[K+].[K+].[Sb+3].[Sb+3] [Potassium Antimonyl Tartrate, Potassium antimonyl tartrate]
- % cell survival (DLKP cell line; vii) Potassium Antimonyl Tartrate 1.5 μg/ml alone): 39.98 ± 3.3%

Structure (SMILES): CSc1ccc(/C=C2/C(C)=C(CC(=O)O)c3cc(F)ccc32)cc1 [Sulindac sulfide, sulindac sulfide]
- % cell survival (A549 cell line; xii) Sulindac sulfide 1.40 μg/ml, alone or + Adriamycin 15 ng/ml): 105.83 ± 6.50%
- % cell survival (A549 cell line; xii) Sulindac sulfide 2.70 μg/ml, alone or + Adriamycin 15 ng/ml): 104.91 ± 5.57%
- % cell survival (A549 cell line; xii) Sulindac sulfide 6.00 μg/ml, alone or + Adriamycin 15 ng/ml): 90.19 ± 9.63%

Structure (SMILES): CC1=C(CC(=O)O)c2cc(F)ccc2/C1=C\c1ccc(S(C)(=O)=O)cc1 [Sulindac sulfone, sulindac sulfone]
- % cell survival (A549 cell line; xiii) Sulindac sulfone 4.50 μg/ml, alone or + Adriamycin 15 ng/ml): 101.87 ± 10.52%
- % cell survival (A549 cell line; xiii) Sulindac sulfone 8.90 μg/ml, alone or + Adriamycin 15 ng/ml): 102.21 ± 8.88%
- % cell survival (A549 cell line; xiii) Sulindac sulfone 19.50 μg/ml alone, or (printed 19.50 mg/ml) + Adriamycin 15 ng/ml): 76.77 ± 6.49%

Structure (SMILES): COc1cc([C@@H]2c3cc4c(cc3[C@@H](O[C@@H]3O[C@@H]5CO[C@@H](c6cccs6)O[C@H]5[C@H](O)[C@H]3O)[C@H]3COC(=O)[C@H]23)OCO4)cc(OC)c1O [Teniposide, teniposide]
- % cell survival (DLKP cells; Teniposide 6.25 ng/ml alone): 79.79 ± 0.97%

Structure (SMILES): Cc1cc(CC(=O)O)n(C)c1C(=O)c1ccc(Cl)cc1 [Zomepirac, zomepirac]
- enhancement of toxicity of MRP substrates (MRP-specific substrates): have been found to enhance the toxicity of MRP-specific substrates
- % cell survival (A549 cell line; xv) Zomepirac 20.70 μg/ml, alone or + Adriamycin 15 ng/ml): 96.79 ± 12.10%
- % cell survival (A549 cell line; xv) Zomepirac 38.80 μg/ml, alone or + Adriamycin 15 ng/ml): 94.89 ± 13.91%
- % Inhibition of GST ([1]; 0.25 mM): 56%

Structure (SMILES): CCc1cccc2c3c([nH]c12)C(CC)(CC(=O)O)OCC3 (centres unmarked) [etodolac]
- enhancement of toxicity of MRP substrates (MRP-specific substrates): does not exhibit the enhanced cytotoxicity
